The subject of one assay is Toxoplasma gondii. The experiment in a line: Toxoplasma gondii replication in human foreskin fibroblasts. Format: cell-based. On the procedure: Primary human foreskin fibroblasts (HFF) were infected with trachyzoites in the presence of WP1130 or vehicle control for 24 hours. […] 1.25×10^5 tachyziotes (RH strain) (MOI=1) were added to each well of a chamber slide in the presence of WP1130 or vehicle control. At 24 hours post infection, cells were fixed in 4% paraformaldehyde for fifteen minutes. Cells were then washed with PBS and analyzed by immunofluorescence microscopy. Parasites were stained with an anti-SAG 1 antibody (the immunodominant surface antigen of T. gondii) followed by an Alexa 594-labeled secondary antibody and DAPI. For quantitative analysis the number of parasites/vacuole were counted.
WP1130 also blocks the replication of the apicomplexan Toxoplasma gondii in primary human foreskin fibroblasts. Cells were treated with WP1130 and infected with tachyziotes (RH strain) (MOI 1) for 24 hr before performing immunofluorescence and counting parasite-containing vacuoles.

Another assay relates to Murine norovirus (MNV). The experiment in a line: Murine norovirus plaque assay. Type of assay: cell-based. Conditions: Norwalk virus. On the procedure: Viral titers were determined by plaque assay.
Cells were treated with IFN-β as a positive anti-viral control.

Another assay has as its system p53. Kind of assay: p53 immunoblot. Format: cell-based. The conditions noted are these: Z138 cells. On the procedure:
Whole cell lysates were prepared by boiling and sonicating the cell pellets in 1× Laemmli reducing sample buffer. To prepare detergent soluble and insoluble fractions, cells were lysed in cold isotonic lysis buffer [10 mM Tris-HCl (pH 7.5), 0.5% Triton X-100, 150 mM NaCl along with Mini-Complete and PhosSTOP] for 15 min on ice and centrifuged 10 minutes at 20,000 RCF. The clarified supernatant was used as a source of the detergent soluble cell fraction. The detergent insoluble fraction was extracted by the sonication of residual pellet in equal volumes of boiling 1× Laemmli reducing sample buffer. Equal volumes of cellular lysate or equal protein amounts were electrophoresed on SDS-PAGE gels.
An increase in p53 protein levels was observed upon WP1130 treatment. Co-treatment of Z138 cells with cycloheximide (50 μg/mL) and WP1130 confirmed the stabilization rather than induction of p53 protein. Furthermore, a rapid decline in MCL-1 levels upon WP1130 treatment was observed. To re-confirm the role played by USP9x and USP5 in regulating the levels of MCL-1 and p53 respectively, a siRNA based knockdown of USP9x and USP5 in HEK293T cells was performed.

Another assay concerns the target T1, UCH37 (Homo sapiens, UniProt Q9Y5K5).
T1 construct: endogenous in cells; host or cells: Z138
The experiment in a line: HA-UbVs labeling of UCH37. Conditions: Z138 cells, 1, 5 or 10 μM, 1 hour. Type of assay: cell-based. On the procedure: (§1) To assay for changes in activity of cellular deubiquitinase enzymes, Z138 and HEK293 cells were lysed in DUB buffer (50 mM Tris pH 7.4, 5 mM MgCl2, 150 mM NaCl) for 10 min at 4° C. The lysates were centrifuged at 20,000 RFC for 10 min and the supernatant was used for DUB labeling. Equal amounts of lysate were incubated with 500 ng of HA-UbVs for 1 hr at room temperature, followed by boiling in reducing sample buffer and resolving by SDS-PAGE. After protein transfer to nitrocellulose membranes, HA immunoblotting was used to detect DUB labeling.
Hemagglutinin-tagged ubiquitin vinyl methyl sulfone (HA-UbVs) acts as a DUB suicide substrate, forming a covalent adduct with active DUB enzymes. Specific cellular DUBs can be identified by anti-HA blotting, as previously shown in various cell types. Changes in specific DUB activities are measurable by monitoring HA-labeling in lysates from control and treated cells. Z138 cells were treated with WP1130 at 1, 5, or 10 μM or AG490 at 250 μM for 1 hours and lysed. 20 μg of clarified supernatant was incubated with 200 nM of HA-UbVS for 1 hr at 37° C. […] An in vitro analysis using cell lysates was performed to investigate direct DUB inhibition by WP1130. Briefly, untreated Z138 cell lysates were incubated with 5 μM WP1130 or vehicle alone for one hour at 37° C., followed by labeling with HA-UbVs.

In a further assay the test system is La Crosse virus (LaCV). The experiment in a line: La Crosse virus plaque assay. The conditions noted are these: human neurons (Be2-c), 5 μM, 30 min pre-treatment.
A further assay deals with DUB activity. Kind of assay: Western / HA-UbVS labeling of DUB activity in intact cells. Type of assay: cell-based. On the procedure: To assay for changes in activity of cellular deubiquitinase enzymes, leukemic cells were lysed in DUB buffer (50 mM Tris pH 7.4, 5 mM MgCl2, 150 mM NaCl) for 10 min at 4° C. The lysates were centrifuged at 20,000 RCF for 10 min and the supernatant was used for DUB labeling. Equal amounts of lysate were incubated with 500 ng of HA-UbVs for 1 hr at room temperature, followed by boiling in reducing sample buffer and resolving by SDS-PAGE. HA immunoblotting was used to detect DUB labeling.
as §1
Cancer Res, 2010. 70(22): p. […] Blood, 2011. 117(11): p. […] Biochem Pharmacol, 2011. 82(4): p. […] Blood, 2007. 109(8): p. 3470-8.

The mark [1] stands for this setting: primary human foreskin fibroblasts, RH strain MOI 1, 24 hr.

Each structure is given as a SMILES string.

T1 sequence (Q9Y5K5 whole entry): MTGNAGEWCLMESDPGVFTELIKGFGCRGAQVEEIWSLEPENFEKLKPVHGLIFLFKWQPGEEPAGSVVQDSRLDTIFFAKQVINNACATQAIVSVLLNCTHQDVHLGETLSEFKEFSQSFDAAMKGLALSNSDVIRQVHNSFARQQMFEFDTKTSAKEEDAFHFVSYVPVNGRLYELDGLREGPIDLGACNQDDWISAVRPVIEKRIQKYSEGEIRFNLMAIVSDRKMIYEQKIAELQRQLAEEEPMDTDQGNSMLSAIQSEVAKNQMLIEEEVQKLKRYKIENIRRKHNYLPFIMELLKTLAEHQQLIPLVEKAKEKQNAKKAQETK

As usually defined, the EC50 is the concentration that produces a half-maximal response. As for `CCC[C@H](NC(=O)/C(C#N)=C/c1cccc(Br)n1)c1ccccc1` [WP1130], the “number of parasites per vacuole” value in the assay with Toxoplasma gondii (HFF, 5 μM, 24 hours post infection) is given as “significantly reduced”. Also, in the assay with Toxoplasma gondii (setting [1]), the “decrease in the vacuoles containing 4 parasites” value was approximately 5 fold and the “increase in the number of vacuoles containing only 1 parasite” value is approximately 3 fold. In addition, the log reduction at 5 µM in the assay on Murine norovirus (MNV) (RAW264.7, MNV, murine macrophages (RAW264.7 or bone marrow derived), 5 μM, 30 min pre-treatment, 8-12 hr, read-out: Log inhibition by plaque assay) is approximately 2. Moreover, the EC50 with Murine norovirus (MNV) (RAW264.7, MNV-1, RAW 264.7, 12 hours postinfection, read-out: anti-viral EC50 activity) came to 1900 nM. Further, the p53 protein levels entry with p53 is “increase”. Further, at UCH37, the “HA-UbVS labeling of UCH37” value was “dose-dependent and time reduction in the labeling”. The “Log inhibition by plaque assay” value in the assay on La Crosse virus (LaCV) is reported as 2-2.5 log. Besides, the “Log inhibition by plaque assay” value with La Crosse virus (LaCV) (listed as HWP1130) was 2.5 log. The “blocking MNV-1 or DUB activation associated with MNV-1 infection” value in the assay with DUB activity (RAW 264.7, 1.25 μM) is listed as “ineffective”. Moreover, the “DUB activity induced by MNV-1 infection (HA-UbVS)” value with DUB activity (RAW 264.7, anti-viral effective concentrations) is reported as “block DUB activity”.

These data come from US8809377B2, “Deubiquitinase inhibitors and methods for use of the same” (The Regents of the University of Michigan, priority 2010, dated 2014).
